According to patent US12186354B2, “Lespedeza capitata extract for use in the field of hair care” (priority 2018, dated 2025):

Tests used:
5α-reductase = 5α-reductase activity (DHT/testosterone ratio) in dermal papilla cells, C14 testosterone metabolism; type: cell-based, human; settings: 10 μM, incubation 24 h+24 h
JAK1/2-STAT3 pathway = test: IL-6-induced STAT3 phosphorylation in follicular keratinocytes of the outer root sheath (ORS); type: cell-based, human; settings: 5 μM, 1 h pre-treatment, IL-6 100 ng/ml 15 minutes

Structure (SMILES)	% inh (DHT/testosterone ratio, relative to the control condition) (5α-reductase)	Mean DHT/testosterone ratio (5α-reductase activity) (5α-reductase)	% of STAT phosphorylated, Mean (JAK1/2-STAT3 pathway)
CC(C)(C)NC(=O)[C@H]1CC[C@H]2[C@@H]3CC[C@H]4NC(=O)C=C[C@]4(C)[C@H]3CC[C@]12C [Finasteride, finasteride]	94.2%	0.02	–
N#CC[C@H](C1CCCC1)n1cc(-c2ncnc3[nH]ccc23)cn1 [Ruxolitinib, ruxolitinib]	–	–	102%
